# According to patent US7192906B2, “Substituted pyrazole derivatives, production process thereof, and herbicide compositions containing the derivatives” (SDS Biotech K.K., priority 2001, dated 2007):
# How the values were obtained:
# Type in all cases: in vivo
# Echinochloa crusgalli = experiment: Test Example 3 paddy field treatment; conditions: Table 6, paddy field treatment, active ingredient 1 kg per hectare, 21st day after dropping, index 0-5
# Summary of the method: (§1)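 Scoring used a 0–5 scale of herbicidal effect or phytotoxicity, from <10% to ≥90%, taken 21 days after treatment. Treatment was 1 kg a.i./ha as diluted wettable powder dripped onto 4 cm-deep flooded pots sown with the weeds, 10 days after transplanting two-leaf Koshihikari rice.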
# Ammannia multiflora = experiment: Test Example 3 paddy field treatment; conditions: Table 6, paddy field treatment, active ingredient 1 kg per hectare, 21st day after dropping, index 0-5
# Summary of the method: as §1
# Scirpus juncoides = experiment: Test Example 3 paddy field treatment; conditions: Table 6, paddy field treatment, active ingredient 1 kg per hectare, 21st day after dropping, index 0-5
# Summary of the method: as §1
# Monochoria vaginalis = experiment: Test Example 3 paddy field treatment; conditions: Table 6, paddy field treatment, active ingredient 1 kg per hectare, 21st day after dropping, index 0-5
# Summary of the method: as §1
# [1] = tested on: wheat (Triticum aestivum); experiment: Test Example 2 upland soil treatment, crop phytotoxicity; conditions: Table 5, upland soil treatment, index 0-5
# Summary of the method: (§2)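 Seeds are sown into upland soil and covered by roughly 1 cm of soil, then the compound, formulated as a wettable powder and diluted with water, is applied uniformly to the soil surface the following day at 1 kg active ingredient per hectare. Herbicidal effect or phytotoxicity is graded 0 to 5 after 21 days.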
# soybean (Glycine max) [2] = experiment: as above; conditions: Table 5, upland soil treatment, index 0-5
# Summary of the method: as §2
# Chenopodium album [3] = experiment: Test Example 1 upland field foliage treatment; conditions: Table 4, upland field foliage treatment, index 0-5
# Summary of the method: (§3)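 Post-emergence foliar spray, 1 kg a.i./ha, wettable powder diluted in water, applied 14 d after sowing in upland soil. Rating 21 d post-application, 0–5 scale: 5 ≥90%, 4 70–<90%, 3 50–<70%, 2 30–<50%, 1 10–<30%, 0 <10% effect or injury.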
# Digitaria adscendens [4] = experiment: Test Example 1 upland field foliage treatment; conditions: Table 4, upland field foliage treatment, index 0-5
# Summary of the method: as §3
# Setaria viridis [5] = experiment: Test Example 1 upland field foliage treatment; conditions: Table 4, upland field foliage treatment, index 0-5
# Summary of the method: as §3
# Stellaria media [6] = experiment: Test Example 1 upland field foliage treatment; conditions: Table 4, upland field foliage treatment, index 0-5
# Summary of the method: as §3
# Chenopodium album [7] = experiment: Test Example 2 upland soil treatment; conditions: Table 5, upland soil treatment, index 0-5
# Summary of the method: as §2
# Digitaria adscendens [8] = experiment: Test Example 2 upland soil treatment; conditions: Table 5, upland soil treatment, index 0-5
# Summary of the method: as §2
# Setaria viridis [9] = experiment: Test Example 2 upland soil treatment; conditions: Table 5, upland soil treatment, index 0-5
# Summary of the method: as §2
# Stellaria media [10] = experiment: Test Example 2 upland soil treatment; conditions: Table 5, upland soil treatment, index 0-5
# Summary of the method: as §2
# Rice (Oryza sativa) = experiment: Test Example 3 paddy field treatment, crop phytotoxicity; conditions: Table 6, paddy field treatment, transplanted rice, active ingredient 1 kg per hectare, 21st day after dropping, index 0-5
# Summary of the method: as §1
# [11] = tested on: wheat (Triticum aestivum); experiment: Test Example 1 upland field foliage treatment, crop phytotoxicity; conditions: Table 4, upland field foliage treatment, index 0-5
# Summary of the method: as §3
# soybean (Glycine max) [12] = experiment: as above; conditions: Table 4, upland field foliage treatment, index 0-5
# Summary of the method: as §3
SMILES,Herbicidal activity EC (Echinochloa crusgalli),Herbicidal activity AM (Ammannia multiflora),Herbicidal activity SJ (Scirpus juncoides),Herbicidal activity MV (Monochoria vaginalis),Herbicidal activity (phytotoxicity) TA: Wheat (Triticum aestivum) [1],Herbicidal activity (phytotoxicity) GM: Soybean (Glycine max) (soybean (Glycine max) [2]),Herbicidal activity CA: Chenopodium album (Chenopodium album [3]),Herbicidal activity DA: Digitaria adscendens (Digitaria adscendens [4]),Herbicidal activity SV: Setaria viridis (Setaria viridis [5]),Herbicidal activity SM: Stellaria media (Stellaria media [6]),Herbicidal activity CA: Chenopodium album (Chenopodium album [7]),Herbicidal activity DA: Digitaria adscendens (Digitaria adscendens [8]),Herbicidal activity SV: Setaria viridis (Setaria viridis [9]),Herbicidal activity SM: Stellaria media (Stellaria media [10]),Herbicidal activity (phytotoxicity) OS (Rice (Oryza sativa)),Herbicidal activity (phytotoxicity) TA: Wheat (Triticum aestivum) [11],Herbicidal activity (phytotoxicity) GM: Soybean (Glycine max) (soybean (Glycine max) [12])
CNC(=O)C(Cn1cc(C)c(-c2ccc(Cl)cc2F)n1)=NOC [Compound 81],"5 (herbicidal effect of not less than 90%, or phytotoxicity of 90% or more)","5 (herbicidal effect of not less than 90%, or phytotoxicity of 90% or more)","5 (herbicidal effect of not less than 90%, or phytotoxicity of 90% or more)","5 (herbicidal effect of not less than 90%, or phytotoxicity of 90% or more)","0 (herbicidal effect of not less than 0% and less than 10%, or phytotoxicity of 0% or more and less than 10%)","1 (herbicidal effect of not less than 10% and less than 30%, or phytotoxicity of 10% or more and less than 30%)","5 (herbicidal effect of not less than 90%, or phytotoxicity of 90% or more)","5 (herbicidal effect of not less than 90%, or phytotoxicity of 90% or more)","5 (herbicidal effect of not less than 90%, or phytotoxicity of 90% or more)","5 (herbicidal effect of not less than 90%, or phytotoxicity of 90% or more)","5 (herbicidal effect of not less than 90%, or phytotoxicity of 90% or more)","5 (herbicidal effect of not less than 90%, or phytotoxicity of 90% or more)","5 (herbicidal effect of not less than 90%, or phytotoxicity of 90% or more)","5 (herbicidal effect of not less than 90%, or phytotoxicity of 90% or more)","0 (herbicidal effect of not less than 0% and less than 10%, or phytotoxicity of 0% or more and less than 10%)","0 (herbicidal effect of not less than 0% and less than 10%, or phytotoxicity of 0% or more and less than 10%)","0 (herbicidal effect of not less than 0% and less than 10%, or phytotoxicity of 0% or more and less than 10%)"
CNC(=O)C(Cn1cc(C)c(-c2cc(C(F)(F)F)ccc2F)n1)=NOC [Compound 86],"5 (herbicidal effect of not less than 90%, or phytotoxicity of 90% or more)","5 (herbicidal effect of not less than 90%, or phytotoxicity of 90% or more)","4 (herbicidal effect of not less than 70% and less than 90%, or phytotoxicity of 70% or more and less than 90%)","5 (herbicidal effect of not less than 90%, or phytotoxicity of 90% or more)","0 (herbicidal effect of not less than 0% and less than 10%, or phytotoxicity of 0% or more and less than 10%)","1 (herbicidal effect of not less than 10% and less than 30%, or phytotoxicity of 10% or more and less than 30%)","4 (herbicidal effect of not less than 70% and less than 90%, or phytotoxicity of 70% or more and less than 90%)","5 (herbicidal effect of not less than 90%, or phytotoxicity of 90% or more)","3 (herbicidal effect of not less than 50% and less than 70%, or phytotoxicity of 50% or more and less than 70%)","4 (herbicidal effect of not less than 70% and less than 90%, or phytotoxicity of 70% or more and less than 90%)","5 (herbicidal effect of not less than 90%, or phytotoxicity of 90% or more)","5 (herbicidal effect of not less than 90%, or phytotoxicity of 90% or more)","4 (herbicidal effect of not less than 70% and less than 90%, or phytotoxicity of 70% or more and less than 90%)","5 (herbicidal effect of not less than 90%, or phytotoxicity of 90% or more)","0 (herbicidal effect of not less than 0% and less than 10%, or phytotoxicity of 0% or more and less than 10%)","0 (herbicidal effect of not less than 0% and less than 10%, or phytotoxicity of 0% or more and less than 10%)","0 (herbicidal effect of not less than 0% and less than 10%, or phytotoxicity of 0% or more and less than 10%)"
